From ChEMBL document CHEMBL1146413, “New polyhalogenated monoterpenes from the sea hare Aplysia punctata” (1997)
Converted amounts (≈) assume the structure as drawn.

Tests used:
Assay type in all cases: functional
Conditions in all cases: read-out: ED50 (the source's name)
SK-MEL-28 = assay: Cytotoxicity against human SK-MEL-28 cells
A549 = assay: Cytotoxicity against human A549 cells
HT-29 = assay: Cytotoxicity against human HT-29 cells
P388 = assay: Cytotoxicity against mouse P388 cells

CC(=O)OCCC(C)C(=O)CC/C(=C\Cl)C(Cl)Cl (configuration not stated)
EC50 (SK-MEL-28): 1.5 µg/mL (≈ 4.75 µM)
EC50 (A549): 1.5 µg/mL (≈ 4.75 µM)
EC50 (HT-29): 2.5 µg/mL (≈ 7.92 µM)
EC50 (P388): 2.5 µg/mL (≈ 7.92 µM)

CC(=O)OCC/C(C)=C(Cl)/C=C/C(C)(Cl)CBr (configuration not stated)
EC50 (SK-MEL-28): 1.5 µg/mL (≈ 4.36 µM)
EC50 (A549): 1.5 µg/mL (≈ 4.36 µM)
EC50 (HT-29): 2.5 µg/mL (≈ 7.27 µM)
EC50 (P388): 2.5 µg/mL (≈ 7.27 µM)

CC(=O)OCCC(C)C(=O)CC/C(=C/Cl)C(Cl)Cl (configuration not stated)
EC50 (SK-MEL-28): 1.5 µg/mL (≈ 4.75 µM)
EC50 (A549): 1.5 µg/mL (≈ 4.75 µM)
EC50 (HT-29): 2.5 µg/mL (≈ 7.92 µM)
EC50 (P388): 2.5 µg/mL (≈ 7.92 µM)
